Results as given in article PMC3961306, “Comparison of the Cancer Gene Targeting and Biochemical Selectivities of All Targeted Kinase Inhibitors Approved for Clinical Use” (PLoS ONE, 2014).
Where “and” joins values, the source holds several entries; their conditions need not be identical. Equal entries are not always repeated. Where two headings read alike, the source gives them in different places.

Tested on: forty-four human cancer cell lines
Assay: Cell proliferation assay (ATPlite, 72 hours) in the 44 cell line Oncolines panel
Assay type: cell-based

COc1cccc2c1C(=O)c1c(O)c3c(c(O)c1C2=O)C[C@@](O)(C(=O)CO)C[C@@H]3O[C@H]1C[C@H](N)[C@H](O)[C@H](C)O1 [doxorubicin]
IC50 (Homo sapiens, 769-P, cell line 769-P, read-out: cell panel IC50, 769-P): 113 nM | IC50 (Homo sapiens, 786-0, cell line 786-0, read-out: cell panel IC50, 786-0): 125 nM | IC50 (Homo sapiens, A 172, read-out: cell panel IC50, A-172, cell line A-172): 93 nM | IC50 (Homo sapiens, A498, read-out: cell panel IC50, A-498, cell line A-498): 96 nM | IC50 (Homo sapiens, A549, read-out: cell panel IC50, A-549, cell line A-549): 82 nM | IC50 (Homo sapiens, A-375, cell line A375, read-out: cell panel IC50, A375): 38 nM | IC50 (Homo sapiens, A-427, read-out: cell panel IC50, A-427, cell line A-427): 27 nM | IC50 (Homo sapiens, ACHN, cell line ACHN, read-out: cell panel IC50, ACHN): 61 nM | IC50 (Homo sapiens, AN3-CA, cell line AN3 CA, read-out: cell panel IC50, AN3 CA): 75 nM | IC50 (Homo sapiens, AU565, read-out: cell panel IC50, AU-565, cell line AU-565): 73 nM | IC50 (Homo sapiens, BT-20, cell line BT-20, read-out: cell panel IC50, BT-20): 190 nM | IC50 (Homo sapiens, BT-549, read-out: cell panel IC50, BT-549, cell line BT-549): 76 nM | IC50 (Homo sapiens, BXPC-3, cell line BxPC-3, read-out: cell panel IC50, BxPC-3): 172 nM | IC50 (Homo sapiens, C-33-A, cell line C-33 A, read-out: cell panel IC50, C-33 A): 26 nM | IC50 (Homo sapiens, CAL-27, cell line CAL 27, read-out: cell panel IC50, CAL 27): 21 nM | IC50 (Homo sapiens, CCRF-CEM, cell line CCRF-CEM, read-out: cell panel IC50, CCRF-CEM): 17 nM | IC50 (Homo sapiens, DLD-1, cell line DLD-1, read-out: cell panel IC50, DLD-1): 437 nM | IC50 (Homo sapiens, FaDu, cell line FaDu, read-out: cell panel IC50, FaDu): 45 nM | IC50 (Homo sapiens, HCT-15, cell line HCT-15, read-out: cell panel IC50, HCT-15): 237 nM | IC50 (Homo sapiens, HCT-116, read-out: cell panel IC50, HCT-116, cell line HCT-116): 44 nM | IC50 (Homo sapiens, Hs-578T, cell line Hs 578T, read-out: cell panel IC50, Hs 578T): 80 nM | IC50 (Homo sapiens, Jurkat E6.1, cell line Jurkat E6.1, read-out: cell panel IC50, Jurkat E6.1): 26 nM | IC50 (Homo sapiens, K562, read-out: cell panel IC50, K-562, cell line K-562): 55 nM | IC50 (Homo sapiens, LoVo, cell line LoVo, read-out: cell panel IC50, LoVo): 49 nM | IC50 (Homo sapiens, MG-63, cell line MG-63, read-out: cell panel IC50, MG-63): 56 nM | IC50 (Homo sapiens, MOLT-4, cell line MOLT-4, read-out: cell panel IC50, MOLT-4): 12 nM | IC50 (Homo sapiens, MeWo, cell line MeWo, read-out: cell panel IC50, MeWo): 204 nM | IC50 (Homo sapiens, NCI-H82, cell line NCI-H82, read-out: cell panel IC50, NCI-H82): 52 nM | IC50 (Homo sapiens, NCI-H460, cell line NCI-H460, read-out: cell panel IC50, NCI-H460): 21 nM | IC50 (Homo sapiens, OVCAR-3, cell line OVCAR-3, read-out: cell panel IC50, OVCAR-3): 259 nM | IC50 (Homo sapiens, RPMI-7951, cell line RPMI-7951, read-out: cell panel IC50, RPMI-7951): 28 nM | IC50 (Homo sapiens, SK-N-AS, cell line SK-N-AS, read-out: cell panel IC50, SK-N-AS): 72 nM | IC50 (Homo sapiens, SW48, cell line SW48, read-out: cell panel IC50, SW48): 208 nM | IC50 (Homo sapiens, SW480, cell line SW480, read-out: cell panel IC50, SW480): 353 nM | IC50 (Homo sapiens, SW-620, cell line SW620, read-out: cell panel IC50, SW620): 296 nM | IC50 (Homo sapiens, U2OS, cell line U-2 OS, read-out: cell panel IC50, U-2 OS): 109 nM | IC50 (Homo sapiens, U-87 MG, 72 h, U-87 MG cell line, ATPlite, 72 hours, read-out: IC50 in cell proliferation assay (table S5 cellpanel data)): 111 nM | IC50 (Homo sapiens, cell line J82, read-out: cell panel IC50, J82): 151 nM | IC50 (Homo sapiens, cell line PA-1, read-out: cell panel IC50, PA-1): 4 nM | IC50 (Homo sapiens, cell line SJCRH30, read-out: cell panel IC50, SJCRH30): 71 nM | IC50 (Homo sapiens, cell line SR, read-out: cell panel IC50, SR): 6 nM | IC50 (U-87 MG cell line, ATPlite, 72 hours, read-out: IC50 in cell proliferation assay (table S5 cellpanel data)): 89 nM | IC50 (cell line 769-P, read-out: cell panel IC50, 769-P): 142 nM and 144 nM | IC50 (cell line 786-0, read-out: cell panel IC50, 786-0): 103 nM | IC50 (cell line A375, read-out: cell panel IC50, A375): 35 nM and 51 nM | IC50 (cell line ACHN, read-out: cell panel IC50, ACHN): 84 nM | IC50 (cell line AN3 CA, read-out: cell panel IC50, AN3 CA): 81 nM and 94 nM | IC50 (cell line BT-20, read-out: cell panel IC50, BT-20): 207 nM and 157 nM | IC50 (cell line BxPC-3, read-out: cell panel IC50, BxPC-3): 227 nM and 286 nM | IC50 (cell line CAL 27, read-out: cell panel IC50, CAL 27): 20 nM | IC50 (cell line CCRF-CEM, read-out: cell panel IC50, CCRF-CEM): 20 nM | IC50 (cell line DLD-1, read-out: cell panel IC50, DLD-1): 429 nM and 346 nM | IC50 (cell line FaDu, read-out: cell panel IC50, FaDu): 47 nM and 57 nM | IC50 (cell line HCT-15, read-out: cell panel IC50, HCT-15): 254 nM and 276 nM | IC50 (cell line Hs 578T, read-out: cell panel IC50, Hs 578T): 89 nM and 58 nM | IC50 (cell line J82, read-out: cell panel IC50, J82): 144 nM and 135 nM | IC50 (cell line Jurkat E6.1, read-out: cell panel IC50, Jurkat E6.1): 31 nM and 24 nM | IC50 (cell line LoVo, read-out: cell panel IC50, LoVo): 59 nM | IC50 (cell line MG-63, read-out: cell panel IC50, MG-63): 67 nM and 87 nM | IC50 (cell line MOLT-4, read-out: cell panel IC50, MOLT-4): 11 nM and 13 nM | IC50 (cell line MeWo, read-out: cell panel IC50, MeWo): 226 nM and 264 nM | IC50 (cell line NCI-H82, read-out: cell panel IC50, NCI-H82): 65 nM | IC50 (cell line NCI-H460, read-out: cell panel IC50, NCI-H460): 25 nM | IC50 (cell line OVCAR-3, read-out: cell panel IC50, OVCAR-3): 314 nM and 276 nM | IC50 (cell line PA-1, read-out: cell panel IC50, PA-1): 5.26 nM and 6.46 nM | IC50 (cell line RPMI-7951, read-out: cell panel IC50, RPMI-7951): 33 nM and 32 nM | IC50 (cell line SJCRH30, read-out: cell panel IC50, SJCRH30): 62 nM and 43 nM | IC50 (cell line SK-N-AS, read-out: cell panel IC50, SK-N-AS): 100 nM | IC50 (cell line SR, read-out: cell panel IC50, SR): 6.54 nM and 10 nM | IC50 (cell line SW48, read-out: cell panel IC50, SW48): 112 nM and 121 nM | IC50 (cell line SW480, read-out: cell panel IC50, SW480): 315 nM and 369 nM | IC50 (cell line SW620, read-out: cell panel IC50, SW620): 354 nM and 446 nM | IC50 (cell line U-2 OS, read-out: cell panel IC50, U-2 OS): 115 nM and 153 nM | IC50 (read-out: cell panel IC50, A-172, cell line A-172): 95 nM | IC50 (read-out: cell panel IC50, A-427, cell line A-427): 31 nM and 40 nM | IC50 (read-out: cell panel IC50, A-498, cell line A-498): 92 nM and 91 nM | IC50 (read-out: cell panel IC50, A-549, cell line A-549): 68 nM | IC50 (read-out: cell panel IC50, AU-565, cell line AU-565): 94 nM and 79 nM | IC50 (read-out: cell panel IC50, BT-549, cell line BT-549): 90 nM | IC50 (read-out: cell panel IC50, HCT-116, cell line HCT-116): 62 nM and 64 nM | IC50 (read-out: cell panel IC50, K-562, cell line K-562): 57 nM

CCN(CC)CCNC(=O)c1c(C)[nH]c(/C=C2\C(=O)Nc3ccc(F)cc32)c1C [sunitinib]
IC50 (Homo sapiens, 4-4 cell, read-out: cell panel IC50, J82): 3500 nM | IC50 (Homo sapiens, 4-4 cell, read-out: cell panel IC50, PA-1): 1310 nM | IC50 (Homo sapiens, 4-4 cell, read-out: cell panel IC50, SJCRH30): 3140 nM | IC50 (Homo sapiens, 4-4 cell, read-out: cell panel IC50, SR): 527 nM | IC50 (Homo sapiens, 769-P, read-out: cell panel IC50, 769-P): 2660 nM | IC50 (Homo sapiens, 786-0, read-out: cell panel IC50, 786-0): 2620 nM | IC50 (Homo sapiens, A 172, read-out: cell panel IC50, A-172): 3280 nM | IC50 (Homo sapiens, A204, read-out: cell panel IC50, A-204): 4080 nM | IC50 (Homo sapiens, A498, read-out: cell panel IC50, A-498): 1970 nM | IC50 (Homo sapiens, A549, read-out: cell panel IC50, A-549): 2260 nM | IC50 (Homo sapiens, A-375, read-out: cell panel IC50, A375): 1550 nM | IC50 (Homo sapiens, A-427, read-out: cell panel IC50, A-427): 1060 nM | IC50 (Homo sapiens, ACHN, read-out: cell panel IC50, ACHN): 1320 nM | IC50 (Homo sapiens, AN3-CA, read-out: cell panel IC50, AN3 CA): 1510 nM | IC50 (Homo sapiens, AU565, read-out: cell panel IC50, AU-565): 3960 nM | IC50 (Homo sapiens, BT-20, read-out: cell panel IC50, BT-20): 13200 nM | IC50 (Homo sapiens, BT-549, read-out: cell panel IC50, BT-549): 4840 nM | IC50 (Homo sapiens, BXPC-3, read-out: cell panel IC50, BxPC-3): 2290 nM | IC50 (Homo sapiens, C-33-A, read-out: cell panel IC50, C-33 A): 1980 nM | IC50 (Homo sapiens, CAL-27, read-out: cell panel IC50, CAL 27): 3080 nM | IC50 (Homo sapiens, CCRF-CEM, read-out: cell panel IC50, CCRF-CEM): 3210 nM | IC50 (Homo sapiens, DLD-1, read-out: cell panel IC50, DLD-1): 3130 nM | IC50 (Homo sapiens, FaDu, read-out: cell panel IC50, FaDu): 2000 nM | IC50 (Homo sapiens, HCT-15, read-out: cell panel IC50, HCT-15): 2110 nM | IC50 (Homo sapiens, HCT-116, read-out: cell panel IC50, HCT-116): 2680 nM | IC50 (Homo sapiens, Hs-578T, read-out: cell panel IC50, Hs 578T): 3480 nM | IC50 (Homo sapiens, Jurkat E6.1, read-out: cell panel IC50, Jurkat E6.1): 1060 nM | IC50 (Homo sapiens, K562, read-out: cell panel IC50, K-562): 2090 nM | IC50 (Homo sapiens, LS174T, read-out: cell panel IC50, LS 174T): 3520 nM | IC50 (Homo sapiens, LoVo, read-out: cell panel IC50, LoVo): 962 nM | IC50 (Homo sapiens, MG-63, read-out: cell panel IC50, MG-63): 3360 nM | IC50 (Homo sapiens, MOLT-4, read-out: cell panel IC50, MOLT-4): 828 nM | IC50 (Homo sapiens, MeWo, read-out: cell panel IC50, MeWo): 3420 nM | IC50 (Homo sapiens, NCI-H82, read-out: cell panel IC50, NCI-H82): 2280 nM | IC50 (Homo sapiens, NCI-H460, read-out: cell panel IC50, NCI-H460): 3430 nM | IC50 (Homo sapiens, OVCAR-3, read-out: cell panel IC50, OVCAR-3): 8630 nM | IC50 (Homo sapiens, RPMI-7951, read-out: cell panel IC50, RPMI-7951): 3670 nM | IC50 (Homo sapiens, SHP77, read-out: cell panel IC50, SHP-77): 5700 nM | IC50 (Homo sapiens, SK-N-AS, read-out: cell panel IC50, SK-N-AS): 1860 nM | IC50 (Homo sapiens, SW48, read-out: cell panel IC50, SW48): 3700 nM | IC50 (Homo sapiens, SW480, read-out: cell panel IC50, SW480): 5650 nM | IC50 (Homo sapiens, SW-620, read-out: cell panel IC50, SW620): 2540 nM | IC50 (Homo sapiens, U-87 MG, 72 h, read-out: IC50 in cell proliferation assay (table S5 cellpanel data)): 5750 nM
